Test results: US20090023753A1, “1,3-Thiazole-5-Carboxamides Useful as Cancer Chemotherapeutic Agents” (Bayer HealthCare AG, priority 2005, published 2009)

How the values were obtained:
[1] = tested on: P-AKT/PKB in H209 small cell lung carcinoma cells; assay: P-AKT/PKB Cytoblot Assay with H209 cells (SCF-stimulated); type: cell-based; conditions: Homo sapiens, NCI-H209, 1 hour compound incubation, SCF 25 ng/mL for 5 minutes, p-(S473) AKT
Text: The utility of the compounds of the present invention can be illustrated, for example, by their activity in the P-AKT/PKB Cytoblot Assay described below. The involvement of the P-AKT/PKB[PI3K/AKt] pathway as a target for cancer chemotherapy has been recognized in the art. For example, see F. Chang et al, Involvement of PI3K/Akt pathway in cell cycle progression, apoptosis, and neoplastic transformation: a target for cancer chemotherapy, Leukemia, 2003, 17: p. 590-603; K. A. West et al, Activation of the PI3K/Akt pathway and chemotherapeutic resistance, Drug Resistance Updates, 2002, 5: p. 234-248; and P. Sen et al, Involvement of the Akt/PKB signaling pathway with disease processes, Molecular and Cellular Biochemistry, 2003, 253: p. 241-246.
P-AKT/PKB Cytoblot Assay Protocol with H209 Cells
H209 small cell lung carcinoma cells in log phase were plated at 50,000 cells/well in 96-well poly-lysine coated, clear bottom/black-sided plates (Becton-Dickinson, USA Cat # 354640) in 100 Ill RPMI medium containing 0.1% (w/v) BSA, and incubated overnight at 37° C. in 5% CO2 incubator. The following day, compounds (10 mM stock solutions in DMSO) were added to the plates to generate final concentrations of 0.0, 0.01, 0.03, 0.1, 0.3, 1.0, 3.0 and 10 μM for IC50 determinations and incubated for 1 hour at 37° C. Cells were then left untreated or stimulated with Stem Cell Factor (SCF: Biosource Cat # PHC2116) at a final concentration of 25 ng/mL for 5 minutes at 37° C. in 5% CO2 incubator. The media was then removed using a vacuum manifold and the cells were washed once with Tris Buffered Saline (TBS). Cells were then fixed by adding 200 μl of cold 3.7% (v/v) formaldehyde in TBS to each well for 15 minutes at 4° C. After removal of the formaldehyde, the cells were treated with the addition of 50 μl of methanol (at −20° C.) to each well for 5 minutes. After removal of the methanol, 200 μl of 1% (w/v) BSA in TBS was added to each well to block non-specific antibody binding sites and the plate was incubated at room temperature for 30 minutes.
After removal of the blocking buffer, 50 μl of p-(S473) AKT rabbit polyclonal antibody (Cell Signaling, USA Cat # 9277S) was added at a dilution of 1:250 in 0.1% (w/v) BSA in TBS, and the plate was incubated at room temperature for 1 hour. Plates were then washed 3 times with cold TBS containing 0.05% (v/v) Tween 20 (TBS-T) and 100 μl of Horseradish peroxidase (HRP)-conjugated goat-anti-rabbit antibody (Amersham, USA Cat # NA934V) at a dilution of 1:250 in TBS-T was added and the plate was incubated at room temperature for 1 h. After washing with ice-cold TBS-T four times, 100 μl of Enhanced Chemiluminescence (ECL) reagent (Amersham, USA Cat# RPN2209) was added to each well and mixed on a mini-orbital shaker for 1 min. The plate was then read on a Perkin Elmer Victor 5 Multilabel Counter (#1420-0421).

[2] = tested on: phospho-ERK in MDA-MB-231 cells; assay: Phospho-ERK Cytoblot Assay with MDA-MB 231 cells; type: cell-based; conditions: Homo sapiens, 1 hour compound incubation, phospho-p44/42 MAP kinase (Thr202/Tyr204)
Text: The utility of the compounds of the present invention can also be illustrated, for example, by their activity in the phosph-ERK Assay described below. Growth-factor induction of the RAS/MEK/ERK signaling pathway leads to the induction of phosphorylation of a number of proteins including phospho-ERK (See C. J. Marshall, MAP kinase kinase kinase, MAP kinase kinase and MAP kinase, Current Opinions in Genetic Development, 1994, 4: p. 82-89). The importance of this pathway in cancer biology has been recognized in the art. Activation of the RAS signaling pathway is an important mechanism by which cancer develops (R. Herrera, et al, Unraveling the complexities of the Raf/MAP kinase pathway for pharmacological intervention, Trends Mol. Med., 2002, 8: p. S27-31). Mutational activation of RAS or downstream effectors as well as growth factor induction of this pathway leads to increased tumor cell proliferation and survival (A. A. Adjei, Blocking oncogenic RAS signaling for cancer therapy, J. Natl. Cancer Inst., 2001, 93(14): p. 1062-1074; J Schlessinger, Cell signaling by receptor tyrosine kinases, Cell, 2000, 103: p. 211-225). Phospho-ERK Cytoblot Assay Protocol with MDA-MB 231 Cells MDA-MB-231 cells in log phase were plated at 25,000 cells/well in 96-well opaque plates (Falcon, USA Cat # 353296) in 100 μL RPMI medium containing 10% (w/v) FBS, and incubated overnight at 37° C. in 5% CO2 incubator. The following day, the growth medium was removed from the plate by aspiration and replaced with RPMI medium containing 0.1% BSA and example compounds diluted to generate final concentrations of 0.0, 0.001, 0.003, 0.01, 0.03, 0.1, 0.3, 1 and 3 μM. Cells were incubated with compound for 1 hour at 37° C. in a 5% CO2 incubator. The media was then removed from the plate by aspiration and the cells were washed once with 180 μL/well cold Tris Buffered Saline (TBS). After removal of the wash buffer, the cells were fixed by adding 180 μL of cold 3.7% (v/v) formaldehyde in TBS to each well for 1 hour at 4° C. After removal of the formaldehyde, the cells were treated with the addition of 60 μL of −20° C. methanol to each well for 5 minutes at 4° C. The methanol was removed and the cells were washed with 180 μL/well of 5% (w/v) BSA in TBS. To block non-specific antibody binding sites, each well was treated with 180 μL/well 5% BSA (w/v) in TBS for thirty minutes at room temperature. After removal of the blocking buffer, 50 μL of an anti-phospho-p44/42 MAP kinase (Thr202/Tyr204) rabbit polyclonal antibody (Cell Signaling, USA Cat # 9101) was added to each well at a dilution of 1:1000 in 5% (w/v) BSA in TBS, and the plate was incubated at 4° C. overnight. Plates were then washed three times with 300 μL/well TBS at room temperature. The plates were then incubated with 50 μL of Horseradish peroxidase (HRP)-conjugated goat-anti-rabbit antibody (Amersham, USA Cat. # NA934V) at a dilution of 1:1000 in 5% BSA-TBS at room temperature for 1 hr. After washing the plate three times with 300 μL/well TBS, 60 μL of Enhanced Chemiluminescence (ECL) reagent (Amersham, USA Cat# RPN2209) was added to each well and incubated at room temperature for five minutes. The plate was then read on a Perkin Elmer Victor 5 Multilabel Counter (#1420-0421). […] The utility of the compounds of the present invention can also be illustrated, for example, by their activity in the flk-1 (murine VEGFR2) Assay described below. The VEGF-VEGFR2 signaling pathway has been extensively characterized as an important regulator of angiogenesis and tumor angiogeneisis (See G. Yancopoulos et al, Vascular-specific growth factors and blood vessel formation, Nature, 2000, 407: p. 242-248; D. Shweiki et al, Induction of vascular endothelial growth factor expression by hypoxia and by glucose deficiency in multi cell spheroids: Implications for tumor angiogenesis, Proc. Natl. Acad. Sci, 1995, 92: p. 768-772). Inhibition of tumor cell growth by blocking this pathway has been well documented in the art. […]

[3] = biological target: T1, Flk-1 (murine VEGFR-2) kinase domain (Mus musculus, UniProt P35918); assay: Flk-1 (murine VEGFR-2) Biochemical Assay (TR-FRET); conditions: 10 μM ATP, 7 nM Flk-1 (kinase domain)
T1 construct: 7 nM Flk-1 (kinase domain)
T1 sequence (P35918 832-1160 limits assumed): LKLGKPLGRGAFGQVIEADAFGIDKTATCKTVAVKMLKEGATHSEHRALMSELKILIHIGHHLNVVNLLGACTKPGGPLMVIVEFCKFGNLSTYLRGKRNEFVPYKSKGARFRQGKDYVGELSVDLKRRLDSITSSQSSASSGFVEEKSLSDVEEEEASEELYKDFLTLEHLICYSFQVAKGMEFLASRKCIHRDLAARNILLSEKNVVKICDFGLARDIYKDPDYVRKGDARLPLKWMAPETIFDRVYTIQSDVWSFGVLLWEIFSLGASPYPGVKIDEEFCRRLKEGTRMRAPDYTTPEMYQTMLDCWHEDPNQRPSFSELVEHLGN

Question: How did the IC50 [1] turn out when CC(=O)OCC(=O)Nc1cc(CNc2ncsc2C(=O)Nc2ccc3c(c2)OC(F)(F)O3)ccn1 [Example 13, 2-[(4-{[(5-{[(2,2-difluoro-1,3-benzodioxol-5-yl)amino]carbonyl}-1,3-thiazol-4-yl)amino]methyl}pyridin-2-yl)amino]-2-oxoethyl acetate] was run?
Answer: < 0.5 µM

Question: And the IC50 [2]?
Answer: < 3 µM

Question: And the IC50 [3]?
Answer: < 0.5 µM

Question: Which IC50 [1] does the source give for CC(=O)OCC(=O)Nc1cc(CNc2ncsc2C(=O)Nc2ccc3c(c2)OC(F)(F)C(F)(F)O3)ccn1 [Example 14, 2-oxo-2-[(4-{[(5-{[(2,2,3,3-tetrafluoro-2,3-dihydro-1,4-benzodioxin-6-yl)amino]carbonyl}-1,3-thiazol-4-yl)amino]methyl}pyridin-2-yl)amino]ethyl acetate] here?
Answer: < 0.5 µM

Question: What about the IC50 [2] of the same molecule?
Answer: < 3 µM

Question: And the IC50 [3]?
Answer: < 0.5 µM

Question: With CCNC(=O)Nc1cc(CNc2ncsc2C(=O)Nc2ccc3c(c2)OC(F)(F)O3)ccn1 [Example 17, N-(2,2-difluoro-1,3-benzodioxol-5-yl)-4-{[(2-{[(ethylamino)carbonyl]amino}pyridin-4-yl)methyl]amino}-1,3-thiazole-5-carboxamide] as the molecule, how does the IC50 [1] read?
Answer: < 0.5 µM

Question: What about the IC50 [2] of the same molecule?
Answer: < 3 µM

Question: What about the IC50 [3] of the same molecule?
Answer: < 0.5 µM

Question: For CNC(=O)Nc1cc(CNc2ncsc2C(=O)Nc2ccc3c(c2)OC(F)(F)O3)ccn1 [Example 18, N-(2,2-difluoro-1,3-benzodioxol-5-yl)-4-{[(2-{[(methylamino)carbonyl]amino}pyridin-4-yl)methyl]amino}-1,3-thiazole-5-carboxamide], which IC50 [1] is on record?
Answer: < 0.5 µM

Question: And the IC50 [2]?
Answer: < 3 µM

Question: What about the IC50 [3] of the same molecule?
Answer: < 0.5 µM

Question: CNC(=O)Nc1cc(CNc2ncsc2C(=O)Nc2ccc3c(c2)OC(F)(F)C(F)(F)O3)ccn1 [Example 20, 4-{[(2-{[(methylamino)carbonyl]amino}pyridin-4-yl)methyl]amino}-N-(2,2,3,3-tetrafluoro-2,3-dihydro-1,4-benzodioxin-6-yl)-1,3-thiazole-5-carboxamide] was tested. Which IC50 [1] did it give?
Answer: < 0.5 µM

Question: What about the IC50 [2] of the same molecule?
Answer: < 3 µM

Question: And the IC50 [3]?
Answer: < 0.5 µM

Question: Which results are given for CCNC(=O)Nc1cc(CNc2ncsc2C(=O)Nc2ccc3c(c2)OC(F)(F)C(F)(F)O3)ccn1 [Example 21, 4-{[(2-{[(ethylamino)carbonyl]amino}pyridin-4-yl)methyl]amino}-N-(2,2,3,3-tetrafluoro-2,3-dihydro-1,4-benzodioxin-6-yl)-1,3-thiazole-5-carboxamide]?
Answer: IC50 [1]: < 0.5 µM; IC50 [2]: < 3 µM; IC50 [3]: < 0.5 µM
